Measurements: US10123954B1, “Methods for treating skin” (AVON PRODUCTS, INC., priority 2015, dated 2018)
Entries after “also recorded” stand apart in the source; their conditions may differ.

How the values were obtained:
Format in all cases: cell-based
[1] = test system: human dermal fibroblast (HDF) cells; experiment: Hyaluronic Acid (HA) assessment in human dermal fibroblasts; conditions: 10 consecutive days, n=6, change over emulsion control, retinol 1 μM; for A alone (% change in HA): active A of Table 3 alone, Tiliacora triandra 0.10%, glycolic acid 1 mM, KTFK 0.001%, sodium glycolate 10 μM; for B alone (% change in HA): active B of Table 3 alone, niacinamide 0.1%, Coleus forskohlii 0.001%, Tiliacora triandra 0.1%, Tetrapeptide 4 0.10%, phytol 0.010%
Description: A series of experiments was conducted to assess the effects of the treatment regimens of active ingredients on the production of hyaluronic acid (HA) in human dermal fibroblast (HDF) cells. The following five treatment regimens were assessed: (1) active ingredient A, alone; (2) active ingredient B, alone; (3) the combination of active ingredients A+B; (4) active ingredient A, alone, followed by active ingredient B, alone (“A/B”); and (5) active ingredient B, alone, followed by active ingredient A, alone (“B/A”). For treatment regimens (1), (2), and (3), the active ingredients were administered to cells for 10 consecutive days. For treatment regimens (4) and (5) (sequential regimens), the cells were treated with active ingredient A or active ingredient B for 5 days, followed by active ingredient B or active ingredient A for 5 days, respectively.
Human dermal fibroblast cells were grown in 96-well plates in DMEM media (available from CORNING, N.Y.) supplemented with 10% FBS and L-glutamine. After reaching about 75% confluence, cells were transferred into DMEM media without FBS, and incubated for 4-6 hours. Different wells were assigned to one of treatment regimens (1)-(5) as described above, with six wells allocated to each treatment regimen (i.e., n=6). All active ingredients were prepared as emulsions and applied directly to the HDF cells. The specific active ingredients used in each of the five treatment regimens are provided below in Table 3. Following treatment, cells were collected and the amount of hyaluronic acid (HA) secreted from the cells was measured using a commercially available HA assay (available from CORGENIX Inc., CO).
The results are summarized below in Table 4 and plotted in FIGS. 13-17 as a percentage change over control (i.e. cells treated with the same emulsion but in absence of active ingredients).

[2] = test system: human dermal fibroblast (HDF) cells; experiment: Hyaluronic acid in human dermal fibroblasts, pulsed versus daily treatment; conditions: for % Change in HA over control (daily): 12 consecutive days; for % Change in HA over control (daily) / % Change in HA over control (pulsed): Tiliacora triandra 0.05%, niacinamide 0.10%, glycolic acid 1 mM, retinol 1 μM, phytol 0.01%; for % Change in HA over control (pulsed): 2 days active / 2 days media without active, repeated over 12 days; for HA production, pulsed treatment compared with daily treatment: pulsed uses half as much active over 12 days
Description: After reaching about 75% confluence, cells were transferred into DMEM media without FBS, and incubated for 4-6 hours. Different wells were assigned to one of treatment regimens (1)-(2) as described above, with six wells allocated to each treatment regimen. All active ingredients were prepared as emulsions and applied directly to the HDF cells. […] Following treatment, cells were collected and the amount of hyaluronic acid (HA) secreted from the cells was measured using a commercially available HA assay (available from […] Inc., CO).

[3] = test system: Human 3D skin EFT400FT tissues; experiment: HA in full thickness 3D skin models; conditions: 4 consecutive days, n=12; 4% glycolic acid topically or 0.2% Tiliacora triandra via growth media
Description: A series of experiments was conducted to assess the effects of the treatment regimens of glycolic acid and Tiliacora triandra on the production of hyaluronic acid (HA) on full thickness 3D skin cultures. Five different treatment regimens were assessed: (1) 4% glycolic acid, alone; (2) 0.2% Tiliacora triandra, alone; (3) the combination of 4% glycolic acid+0.2% Tiliacora triandra; (4) 4% glycolic acid, alone, followed by 0.2% Tiliacora triandra, alone; and (5) 0.2% Tiliacora triandra, alone, followed by 4% glycolic acid, alone. Glycolic acid was administered topically to the 3D tissue and Tiliacora triandra was administered via the growth media. For treatment regimens (1), (2), and (3), the active ingredient or ingredients were applied to cells for 4 consecutive days. For treatment regimens (4) and (5) (sequential regimens), the cells were treated with glycolic acid or Tiliacora triandra for 2 days, followed by Tiliacora triandra or glycolic acid for 2 days, respectively.
Human 3D skin EFT400FT tissues (MatTek, Mass.) were cultured following the manufacturer's instructions. Each treatment regimen was applied to twelve 3D skin samples. […] Following treatment, cells were collected and the amount of hyaluronic acid secreted from the cells was measured using a commercially available HA assay (available from CORGENIX Inc., CO). […]

[4] = test system: Human 3D MelanoDerm MEL-B skin tissues; experiment: Melanin in 3D skin models (SOLVABLE melanin assay); conditions: 14 consecutive days, n=6, change from control, niacinamide 0.1%; for B (% change in pigmentation): active B of Table 8 alone, hexylresorcinol 0.05%; for A (% change in pigmentation): active A of Table 8 alone, TDPA 1%
Description: A series of experiments was conducted to assess the effects of treatment regimens of active ingredients shown in Table 8 on the production of melanin in 3D models. Four different treatment regimens were assessed: (1) active ingredient A, alone; (2) active ingredient B, alone; (3) the combination of active ingredients A+B; and (4) active ingredient A, alone, followed by active ingredient B, alone, as detailed in Table 8. For treatment regimens (1), (2), and (3), the active ingredients were applied to cells for 14 consecutive days. For treatment regimen (4) (sequential regimen), the cells were treated with active ingredient A for 7 days, followed by treatment with the other active ingredient B for 7 days.
Human 3D MelanoDerm MEL-B skin tissues (available from MatTek, Mass.) were cultured following the manufacture instructions. Different skin tissue models were assigned to one of treatment regimens (1)-(4) as described above, with six models allocated to each treatment regimen (i.e., n=6). All active ingredients were prepared as emulsions and applied directly to the skin models. Following treatment, skin tissue models were collected and the amount of melanin produced from the cells was measured using a SOLVABLE melanin assay. Treated skin tissues were prepared using a phosphate buffer saline and sodium bicarbonate. Each skin tissue is added to 500 μl of 0.5 M SOLVABLE solubilizer (available from Packard BioScience) and incubated at 95° overnight. The absorbance of each skin tissue sample is measured at 490 nm and the absorbance is compared to a standard curve to indicate the amount of melanin produced and pigmentation in each skin tissue model.
The results for treatments measuring the melanin content produced are shown in Table 9 as a percentage change from control (i.e., untreated samples or samples treated with the same emulsion but in absence of active ingredients).

[5] = test system: Human dermal fibroblast cells; experiment: Pro-collagen I secretion by human dermal fibroblasts (HTRF human pro-collagen I kit); conditions: 0.0001% phytol or 1 μM retinol alone for 16 days, re-treated every other day
Description: Human dermal fibroblast cells were grown in a 6-well plate in DMEM media (available from Corning, N.Y.) supplemented with 10% Fetal Bovine Serum (FBS) and L-glutamine (1.5×10^5 cells/plate) overnight. After reaching about 75% confluence, cells were transferred into DMEM media without FBS and incubated for 4-6 hours. Next, the cells were treated with either 0.0001% phytol or 1 μM retinol. Treatment with either phytol alone, or retinol alone was performed in DMEM media without FBS for 16 days. For sequential treatments, the cells were treated with 0.0001% phytol for 6 days followed by 1 μM retinol for 10 days, or with 1 μM retinol for 6 days, followed by 0.0001% phytol for 10 days. Every other day, media were collected and cells were re-treated with phytol or retinol in the same fashion. After treatment, the amount of collagen secreted into the culture media was determined using the HTRF human pro-collagen I kit (available from CISBIO, Inc).

[6] = test system: human dermal fibroblast (HDF) cells; experiment: Pro-collagen type I assessment in human dermal fibroblasts (ELISA); conditions: 10 consecutive days, change from emulsion control, retinol 1 μM; for A alone (% change in pro-collagen): active A of Table 6 alone, phytol 0.0001%
Description: A series of experiments was conducted to assess the effects of the treatment regimens of active ingredients shown in Table 6 on the production of pro-collagen type I in human dermal fibroblast (HDF) cells. Five different treatment regimens were assessed: (1) active ingredient A, alone; […] (3) the combination of active ingredients A+B; […] For treatment regimens (1), (2), and (3), the active ingredients were applied to cells for 10 consecutive days. […] After reaching about 75% confluence, cells were transferred into DMEM media without FBS, and incubated for 4-6 hours. Different wells were assigned to one of treatment regimens (1)-(5) as described above, with six wells allocated to each treatment regimen. All active ingredients were prepared as emulsions and applied directly to the HDF cells. The specific active ingredients used in each of the five treatment regimens are provided below in Table 6. Following treatment, measurements on the amount of pro-collagen produced from the cells were performed using a commercially available pro-collagen type I enzyme-linked immuno sorbent assay (ELISA) kit (available from TAKARA Inc., KR). [table]

Molecule | A alone (% change in HA) [1] [%] | % Change in HA over control (daily) [2] [%] | % Change in HA over control (pulsed) [2] [%] | HA production, pulsed treatment compared with daily treatment [2] | B alone (% change in HA) [1] [%] | further results
O=C(O)CO [Glycolic Acid] | 20.8 | 9.1 | 5.1 | only slightly less effective than daily treatment |  | percentage change in HA over control, active alone [3]: 42.6%
CCCCCCc1ccc(O)cc1O [Hexylresorcinol] |  |  |  |  |  | B (% change in pigmentation) [4]: 140.4%
NC(=O)c1cccnc1 [Niacinamide] |  | −36.5 | 1.3 |  | −51.6 | A (% change in pigmentation) [4]: −18.9%; B (% change in pigmentation) [4]: −18.9%
C/C(=C\CO)CCC[C@H](C)CCC[C@H](C)CCCC(C)C [Phytol] |  | −4.0 | 25.1 | significantly more production of hyaluronic acid than in daily treatment regimens | 67.7 | pro-collagen production over treatment time [5]: declines for both phytol- and retinol-treated cells after day 13 despite continuing treatment; also recorded: plateau in effectiveness over time; A alone (% change in pro-collagen) [6]: 19.1%
CC1=C(/C=C/C(C)=C/C=C/C(C)=C/CO)C(C)(C)CCC1 [Retinol] | 11.7 | 17.2 | 32.0 | significantly more production of hyaluronic acid than in daily treatment regimens | 11.7 | pro-collagen production over treatment time [5]: declines for both phytol- and retinol-treated cells after day 13 despite continuing treatment; also recorded: plateau in effectiveness over time; A alone (% change in pro-collagen) [6]: 13.6%; B alone (% change in pro-collagen) ([6]; active B of Table 6 alone, Coleus forskohlii 0.001%): 3.9%
O=C([O-])CO.[Na+] [Sodium Glycolate] | −2.54 |  |  |  |  | 
O=C(O)CCSCCC(=O)O [TDPA, thiodipropionic acid] |  |  |  |  |  | A (% change in pigmentation) [4]: −19.1%
Lys-Thr-Phe-Lys (KTFK; printed: Lys-Thr-Phe-Lys) | 23.7 |  |  |  |  | 
Tetrapeptide-4 [Tetrapeptide 4] |  |  |  |  | 15.1 | 
